The target of the test is human recombinant H-PGDS (Homo sapiens, UniProt O60760). The experiment in a line: Fluorescence Intensity h-PGDS TBA Enzyme Assay. In kind it is biochemical. To be noted: 1:175,000 human recombinant H-PGDS, highest inhibitor concentration typically 1 μM. A digest of the protocol: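 Recombinant human H-PGDS preincubated 10 min at room temperature with inhibitor in 100 mM Tris pH 8.0, 100 μM MgCl2, 2.5 mM glutathione, 0.5% DMSO; 5.0 μM PGH2 added, stopped after 42 s with FeCl2/citric acid. Remaining PGH2 measured as MDA–TBA fluorescence (ex 530/em 565 nm); IC50 by 4-parameter fit, 11 concentrations.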
Sequence of human recombinant H-PGDS (O60760 whole entry): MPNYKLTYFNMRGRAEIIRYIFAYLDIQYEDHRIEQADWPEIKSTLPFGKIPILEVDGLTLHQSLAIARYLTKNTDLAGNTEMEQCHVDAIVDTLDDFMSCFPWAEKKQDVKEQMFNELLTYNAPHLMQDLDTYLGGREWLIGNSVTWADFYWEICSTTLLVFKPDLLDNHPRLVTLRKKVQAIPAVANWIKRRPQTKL
For “N-(4-Fluorophenyl)-6-(3- fluorophenyl)nicotinamide [Example 425]”, the IC50 – broadly, the concentration at which inhibition is half-maximal – was 52.6 nM.
In the case of `O=C(NCCN1CCN(Cc2ccccc2)CC1)c1ccc(-c2ccccc2)nc1` [Example 382, N-[2-(4-Benzylpiperazin-1-yl)ethyl]-6-phenylnicotinamide] it was 9.1 nM; in that of `Cc1cc(=O)[nH]c(N2CCCC(CNC(=O)c3ccc(-c4cccc(F)c4)nc3)C2)n1` (stereo not drawn) [Example 112, 6-(3-Fluorophenyl)-N-{[1-(4-methyl-6-oxo-1,6-dihydropyrimidin-2-yl)piperidin-3-yl]methyl}nicotinamide], 29.2 nM; in that of `CCc1csc(CNC(=O)c2ccc(-c3cccc(F)c3)nc2)n1` [Example 61, N-[(4-Ethyl-1,3-thiazol-2-yl)methyl]-6-(3-fluorophenyl)nicotinamide], 5.48 nM.
To `Cc1nnc(CNC(=O)c2ccc(-c3cccc(F)c3)nc2)o1` [Example 96, 6-(3-Fluorophenyl)-N-[(5-methyl-1,3,4-oxadiazol-2-yl)methyl]nicotinamide] belongs 175 nM; to `COc1ccc(OC)c(C(O)CNC(=O)c2ccc(-c3cccc(F)c3)nc2)c1` (stereo not drawn) [Example 50, N-[2-(2,5-Dimethoxyphenyl)-2-hydroxyethyl]-6-(3-fluorophenyl)nicotinamide], 8.14 nM.
Regarding `NC(CC(=O)NC(=O)c1ccc(-c2ccccc2)nc1)C1CC1` (stereo not drawn) [Example 364, N-(3-Amino-3-cyclopropylpropanoyl)-6-phenylnicotinamide], the IC50 was 39.3 nM.
In the case of `Cn1ccnc1C(NC(=O)c1ccc(-c2cccc(F)c2)nc1)c1c(F)cccc1F` (stereo not drawn) [Example 25, N-[(2,6-Difluorophenyl)(1-methyl-1H-imidazol-2-yl)methyl]-6-(3-fluorophenyl)nicotinamide] it was 399 nM; in that of `O=C(NCCc1nnc(C2CC2)[nH]1)c1ccc(-c2cccc(F)c2)nc1` [Example 88, N-[2-(5-Cyclopropyl-4H-1,2,4-triazol-3-yl)ethyl]-6-(3-fluorophenyl)nicotinamide], 9.06 nM.
For the compound `CS(=O)(=O)c1ccc(CNC(=O)c2ccc(-c3cccc(F)c3)nc2)cc1` [Example 420, 6-(3-Fluorophenyl)-N-[4-(methylsulfonyl)benzyl] nicotinamide], the IC50 was 34.1 nM.
To `O=C(NCc1cccc(F)c1)c1ccc(-c2ccccc2)nc1` [Example 346, N-(3-Fluorobenzyl)-6-phenylnicotinamide] belongs 4.07 nM; to `O=C(NCc1ccc(F)cc1)c1ccc(-c2ccc(F)cc2)nc1` [Example 482, N-(4-Fluorobenzyl)-6-(4-fluorophenyl)nicotinamide], 527 nM; to `Cc1cccc(-c2ccc(C(=O)NCCNc3ccccc3)cn2)c1` [Example 490, N-(2-Anilinoethyl)-6-(3-methylphenyl)nicotinamide], 39.9 nM.
In the case of `CC(NC(=O)c1ccc(-c2ccc(F)cc2)nc1)c1ccncn1` (stereo not drawn) [Example 502, 6-(4-Fluorophenyl)-N-(1-pyrimidin-4-ylethyl) nicotinamide] it was not below 1000 nM; in that of `Cc1noc([C@H]2CC[C@H](CNC(=O)c3ccc(-c4cccc(F)c4)nc3)CC2)n1` [Example 11, 6-(3-Fluorophenyl)-N-{[trans-4-(3-methyl-1,2,4-oxadiazol-5-yl)cyclohexyl]methyl} nicotinamide], 18.9 nM; in that of `CCCCNC(=O)c1ccc(-c2ccccc2)nc1` [Example 368, N-Butyl-6-phenylnicotinamide], 16.6 nM.
To `COc1cccc(-c2ccc(C(=O)NCc3ccc(Cl)cc3)cn2)c1` [Example 281, N-(4-Chlorobenzyl)-6-(3-methoxyphenyl)nicotinamide] belongs 561 nM; to `Cc1cccc(-c2ccc(C(=O)NCCN3CCCCC3=O)cn2)c1` [Example 224, 6-(3-Methylphenyl)-N-[2-(2-oxopiperidin-1-yl)ethyl]nicotinamide], 56.4 nM; to `CCCCN1CC(CNC(=O)c2ccc(-c3cccc(F)c3)nc2)OCC1=O` (stereo not drawn) [Example 70, N-[(4-Butyl-5-oxomorpholin-2-yl)methyl]-6-(3-fluorophenyl)nicotinamide], 34.2 nM.
As for `O=C(Nc1cccn(Cc2ccccc2)c1=O)c1ccc(-c2ccccc2)nc1` [Example 402, N-(1-Benzyl-2-oxo-1,2-dihydropyridin-3-yl)-6-phenylnicotinamide], the 50% inhibitory concentration (IC50) came to 8 nM.
In the case of `COC(=O)CNC(=O)c1ccc(-c2cccc(C)c2)nc1` [Example 241, Methyl N-{[6-(3-methylphenyl)pyridin-3-yl]carbonyl}glycinate] it was 150 nM.
In the case of `Cc1cccc(-c2ccc(C(=O)NCc3ccc(Cl)c(Cl)c3)cn2)c1` [Example 456, N-(3,4-Dichlorobenzyl)-6-(3-methylphenyl)nicotinamide] it was 178 nM.
For `CC(C)CNC(=O)c1ccc(-c2cccc(F)c2)nc1` [Example 170, 6-(3-Fluorophenyl)-N-isobutylnicotinamide], the half-maximal inhibitory concentration (IC50) was determined as 26.1 nM.
In the case of `Cc1ccn(CCNC(=O)c2ccc(-c3cccc(F)c3)nc2)n1` [Example 92, 6-(3-Fluorophenyl)-N-[2-(3-methyl-1H-pyrazol-1-yl)ethyl]nicotinamide] it was 18.7 nM; in that of `COc1cccc(-c2ccc(C(=O)NC(C)c3ccncn3)cn2)c1` (stereo not drawn) [Example 299, 6-(3-Methoxyphenyl)-N-(1-pyrimidin-4-ylethyl)nicotinamide], 578 nM.
Take `CN(C)[C@@H]1COC[C@H]1NC(=O)c1ccc(-c2cccc(F)c2)nc1` [Example 68, N-[(3S,4S)-4-(Dimethylamino)tetrahydro-furan-3-yl]-6-(3-fluorophenyl)nicotinamide]: the IC50 came out at 75.8 nM.
To `O=C(NCCc1nnc(-c2ccc(F)cc2)o1)c1ccc(-c2cccc(F)c2)nc1` [Example 200, 6-(3-Fluorophenyl)-N-{2-[5-(4-fluorophenyl)-1,3,4-oxadiazol-2-yl]ethyl}nicotinamide] belongs 447 nM; to `O=C(NCCN1CCCCC1)c1ccc(-c2ccccc2)nc1` [Example 361, 6-Phenyl-N-(2-piperidin-1-ylethyl)nicotinamide], 11.8 nM; to `CC(C)(C)[C@@H](CO)NC(=O)c1ccc(-c2cccc(F)c2)nc1` [Example 539, 6-(3-Fluorophenyl)-N-[(1S)-1-(hydroxymethyl)-2,2-dimethylpropyl]nicotinamide], 64.4 nM.
For the compound `Cc1cccc(-c2ccc(C(=O)NC(C)C)cn2)c1` [Example 254, N-Isopropyl-6-(3-methylphenyl)nicotinamide], the IC50 was determined as 28.2 nM.
As for `CCC(NC(=O)c1ccc(-c2cccc(F)c2)nc1)c1nn[nH]n1` (stereo not drawn) [Example 60, 6-(3-Fluorophenyl)-N-[1-(2H-tetrazol-5-yl)propyl]nicotinamide], the IC50 was determined as 38.9 nM.
For `CNS(=O)(=O)c1ccc(CNC(=O)c2ccc(-c3cccc(F)c3)nc2)cc1` [Example 424, 6-(3-Fluorophenyl)-N-{4-[(methylamino)sulfonyl]benzyl}nicotinamide], the IC50 is 67.8 nM.
To `COC(=O)[C@H](C)NC(=O)c1ccc(-c2cccc(OC)c2)nc1` [Example 340, Methyl N-{[6-(3-methoxyphenyl)pyridin-3-yl]carbonyl}alaninate] belongs not below 1000 nM; to `CCN1CCC[C@@H]1CNC(=O)c1ccc(-c2cccc(F)c2)nc1` [Example 74, N-{[(2R)-1-Ethylpyrrolidin-2-yl]methyl}-6-(3-fluorophenyl) nicotinamide], 42.3 nM; to `Cc1cc(=O)[nH]c(N2CCC(CNC(=O)c3ccc(-c4cccc(F)c4)nc3)CC2)n1` [Example 109, 6-(3-Fluorophenyl)-N-{[1-(4-methyl-6-oxo-1,6-dihdyropyrimidin-2-yl)piperidin-4-yl]methyl}nicotinamide], 34.5 nM.
For `O=C(NCCN1CCCC1=O)c1ccc(-c2ccccc2)nc1` [Example 351, N-[2-(2-Oxopyrrolidin-1-yl)ethyl]-6-phenylnicotinamide], the half-inhibitory concentration (IC50) was 25.4 nM.
To `COC(=O)CCCNC(=O)c1ccc(-c2cccc(F)c2)nc1` [Example 44, Methyl 4-({[6-(3-fluorophenyl)pyridin-3-yl]carbonyl}amino)butanoate] belongs 13.2 nM; to `O=C(NC1CCCOC1)c1ccc(-c2cccc(F)c2)nc1` (stereo not drawn) [Example 63, 6-(3-Fluorophenyl)-N-(tetrahydro-2H-pyran-3-yl)nicotinamide], 5.32 nM.
For the compound `CCC1CCN(CCNC(=O)c2ccc(-c3ccccc3)nc2)CC1` [Example 371, N-[2-(4-Ethylpiperidin-1-yl)ethyl]-6-phenylnicotinamide], the half-inhibitory concentration (IC50) is 20.1 nM.
In the case of `CC(=O)N1CCC(CNC(=O)c2ccc(-c3cccc(F)c3)nc2)CC1` [Example 178, N-[(1-Acetylpiperidin-4-yl)methyl]-6-(3-fluorophenyl)nicotinamide] it was 6.88 nM; in that of `CC(CCCC(C)(C)O)NC(=O)c1ccc(-c2cccc(F)c2)nc1` (stereo not drawn) [Example 24, 6-(3-Fluorophenyl)-N-(5-hydroxy-1,5-dimethylhexyl)nicotinamide], 20.2 nM; in that of `O=C(NCCC1CCCCO1)c1ccc(-c2cccc(F)c2)nc1` (stereo not drawn) [Example 172, 6-(3-Ffluorophenyl)-N-[2-(tetrahydro-2H-pyran-2-yl)ethyl]nicotinamide], 5.74 nM.
In the case of `COc1cccc(-c2ccc(C(=O)NCCN(C)C)cn2)c1` [Example 285, N-[2-(Dimethylamino)ethyl]-6-(3-methoxyphenyl) nicotinamide] it was not below 1000 nM; in that of `COc1cccc(-c2ccc(C(=O)NC(=O)[C@@H](N)C(C)C)cn2)c1` [Example 287, 6-(3-Methoxyphenyl)-N-L-valylnicotinamide], 816 nM.
In the case of `CCOC(=O)CCCNC(=O)c1ccc(-c2ccc(F)cc2)nc1` [Example 330, Ethyl 4-({[6-(4-fluorophenyl)pyridin-3-yl]carbonyl}amino)butanoate] it was 507 nM.
